Experimental data: US20130130922A1, “ANALYSIS OF METHYLATION SITES” (Centre for Addiction and Mental Health, priority 2011, published 2013)

Tested on: Control-Sss reference system (specific and nonspecific DNA fragments)
Test: mTAG labeling, biotinylation, capture on streptavidin beads and multiplex real-time PCR of Control-Sss reference system
Conditions: 50 ng Control-Sss mixed with 300 ng sonicated human brain genomic DNA; 50 μM Ado-6-amine; 1450 nM enzyme; 37° C. 30 min

## SssI (Q142A/N370A): His6-tagged M.SssI C5 DNA methyltransferase (CG target site) double-alanine mutant Q142A/N370A
  level of nonspecific probe found: less than 1%
  yield of captured specific probe containing two SssI target sites: ~80%
